Tests used:
Assay type in all cases: functional
Rattus norvegicus [1] = species: Rattus norvegicus; assay: Compound (10 uM) tested for percent inhibition of […] induced lipid peroxidation in rat liver microsomes; Range 85-54%
MCF7 = assay: Compound tested for percent viability of human MCF-7 cell line at 1 mg/mL concentration after 24 hrs by MTT method
Rattus norvegicus [2] = species: Rattus norvegicus; assay: Compound (10 uM) tested for percent inhibition of […] induced lipid peroxidation in rat liver microsomes; Range 80-60%

Compound	inhibition (Rattus norvegicus [1])	Viability (MCF7)	inhibition (Rattus norvegicus [2])
COc1cc(/C=C/C(=O)CC(/C=C/c2ccc(O)c(OC)c2)=N/NC(N)=O)ccc1O	85%	26%	
COc1cc(/C=C/C(=O)CC(=O)/C=C/c2ccc(O)c(OC)c2)ccc1O [CURCUMIN]		64%	80%
